Results on 20 compounds are retold here after US20240208997A1, “CYCLIC BENZIMIDAZOLE DERIVATIVES AS CGAS INHIBITORS” (Boehringer Ingelheim International GmbH, priority 2022, published 2024).

The subject of assay [1] is IFN induction in cGAMP-stimulated THP1 cells. Put plainly: cGAMP stimulated counter cell assay in THP1-Dual cells (THP1(cGAMP) IC50). The settings on record: Homo sapiens, read-out: THP1(cGAMP) IC50. It counts as cell-based, human. The text has this:
(§1) 6.2 Method: Human cGAS Cell Assay and cGAMP Stimulated Counter Cell Assay (THP1(vir) IC50 and THP1(cGAMP) IC50)
For the counter assay, cells were stimulated by cGAMP (SigmaAldrich #SML1232) to activate the identical pathway independent and directly downstream of cGAS (measurement of THP1(cGAMP) IC50).
(§2) Pathway activity was monitored by measuring the Lucia luciferase activity induced by either DNA stimulated cGAS enzyme activity (measurement of THP1(vir) IC50) or by cGAMP directly (measurement of THP1(cGAMP) IC50, counter assay).
(§3) Compounds were delivered in 10 mM DMSO solution, serially diluted and transferred to the 384 well assay plate (Greiner #781201) using an Echo acoustic dispenser. Typically, 8 concentrations were used with the highest concentration at 10 μM in the final assay volume followed by ^˜1:5 dilution steps. DMSO concentration was set to 1% in the final assay volume. The 384 well assay plate contained […] (column 1-22), and DMSO in column 23 and 24.
(§4) Cells, cultivated according to manufacturer conditions, were harvested by centrifugation at 300 g/10 min and were then resuspended and diluted to 1.66E5 cells/ml in fresh cell culture medium (RPMI 1640 (Gibco #A10491-01), 10% FCS (Gibco #10500), 1× GlutaMax (Gibco #35050-061), 1× Pen/Strep solution (Gibco #15140-122), 100 μg/ml Normocin (InvivoGen #ant-nr), 100 μg/ml Zeocin (InvivoGen #ant-zn), 10 μg/ml Blasticidin S (Life Technologies #A11139-03)). The baculovirus solution was then added 1:200 (have varied according to virus batch) to the cells (measurement of THP1(vir) IC50).
(§5) 30 μL of the cell/virus-mix were added to each well of the compound plate from column 1-23 via MultiDrop Combi dispenser (5000 cells/well). In column 24, 30 μl/5000 cells/well without virus were added as a low control.
(§6) The plates were then incubated for 18 h at 37° C. in a humidified incubator.
(§7) Following that, 15 μL of QuantiLuc detection reagent (InvivoGen #rep-qlcg5) were added to each well using a MultiDrop Combi. Measurement was done immediately after the addition using an EnVision reader (US-luminescence read-mode).
(§8) Data Evaluation and Calculation:
(§9) For data evaluation and calculation, the measurement of the low control was set as 0% control and the measurement of the high control was set as 100% control. The IC50 values were calculated using the standard 4 parameter logistic regression formula. Calculation: [y=(a−d)/(1+(x/c)^b)+d], a=low value, d=high value; x=conc M; c=IC50 M; b=slope

Assay [2] relates to IFN induction in virus-stimulated THP1 cells. Put plainly: Human cGAS cell assay, virus-stimulated THP1-Dual cells (THP1(vir) IC50). The class given is cell-based.
Excerpt: as §1
THP1-Dual™ cells (InvivoGen #thpd-nfis) expressing IRF dependent Lucia luciferase reporter were used as basis for both assays. For the detection of cellular cGAS activity cells were stimulated by a baculovirus (pFastbac-1, Invitrogen, no coding insert) infection that delivers the cGAS enzyme stimulating double-stranded DNA (measurement of THP1(vir) IC50).
as §2, §3, §4, §5, §6, §7, §8, §9

The subject of assay [3] is IFN induction in dsDNA-stimulated human whole blood. The settings on record: Table 4; compounds of PCT/EP2022/062480 and PCT/EP2022/062496 and their methyl ester prodrugs; read-out: hWB IC50; cited from earlier work.
The subject of assay [4] is IFN induction in virus-stimulated THP1 cells. The settings on record: Table 4; compounds of PCT/EP2022/062480 and PCT/EP2022/062496 and their methyl ester prodrugs; read-out: THP1(vir) IC50; cited from earlier work.
Assay [5] has as its system IFN induction in cGAMP-stimulated THP1 cells. The note with it: Table 4; compounds of PCT/EP2022/062480 and PCT/EP2022/062496 and their methyl ester prodrugs; cited from earlier work.
The target in assay [6] is T1, cGAS (Homo sapiens, UniProt Q8N884). Also on record: HumancGAS (amino acid 1-522) with an N-terminal 6×-His-tag and SUMO-tag; 6xHis (N); SUMO (N); made in house; host or cells: E. coli BL21(DE3) pLysS. The settings on record: Table 4; compounds of PCT/EP2022/062480 and PCT/EP2022/062496 and their methyl ester prodrugs; read-out: hcGAS IC50; cited from earlier work.
T1 sequence (Q8N884 whole entry): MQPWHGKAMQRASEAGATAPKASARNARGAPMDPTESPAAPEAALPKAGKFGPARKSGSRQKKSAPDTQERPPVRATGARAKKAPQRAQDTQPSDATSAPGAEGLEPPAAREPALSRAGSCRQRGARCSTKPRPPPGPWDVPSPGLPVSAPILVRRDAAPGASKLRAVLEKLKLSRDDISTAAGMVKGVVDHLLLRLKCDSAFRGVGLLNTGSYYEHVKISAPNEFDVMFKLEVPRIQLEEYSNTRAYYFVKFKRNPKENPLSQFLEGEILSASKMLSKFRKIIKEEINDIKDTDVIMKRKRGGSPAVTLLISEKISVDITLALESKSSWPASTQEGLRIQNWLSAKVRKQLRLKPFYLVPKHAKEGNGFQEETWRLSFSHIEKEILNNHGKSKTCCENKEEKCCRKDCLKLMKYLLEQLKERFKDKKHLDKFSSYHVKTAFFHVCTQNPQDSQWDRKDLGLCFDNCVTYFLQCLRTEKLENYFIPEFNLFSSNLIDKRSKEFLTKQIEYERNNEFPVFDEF
Assay [7] has as its target T1, cGAS. The note with it: groups as on page 44/45 of WO 2020/142729; read-out: biochemical (in vitro) IC50-value, group; cited from earlier work.
In assay [8] the test system is THP-1. The note with it: page 67 and 68, Table 3 of WO 2022/174012; read-out: cellular IC50-value (IFNβ ELISA stimulated with THP-1), group; cited from earlier work. In general terms: ELISA stands for enzyme-linked immunosorbent assay.
In assay [9] the target is T1, cGAS. The settings on record: page 65, Table 2 of WO 2022/174012; read-out: enzymatic IC50-value, group; cited from earlier work.
[10] abbreviates: THP-1, Table 2, compounds of WO 2020/142729.
Where [11] appears, read: THP-1, Table 2, compounds of WO 2020/142729, read-out: THP1(vir) IC50.

Molecules are shown by their SMILES. Like-named read-outs stand apart in the source and are kept apart here.

With `Cc1nc(N2C[C@@H](Nc3ccncc3)C[C@H]2C(=O)O)c2oc3ccccc3c2n1` [Example 38, reference compound], the IC50 in [1] (setting [10]) and in [2] (setting [11]) was more than 17000 nM each time.
Take `Cc1nc(N2C[C@@H](CC(=O)Nc3ccncc3)C[C@H]2C(=O)O)c2oc3ccccc3c2n1` [Example 28, reference compound]: in assay [2] (setting [11]), the IC50 is more than 32000 nM.
Consider `C[C@@H]1N(c2cccnc2O[C@H]2C[C@@H](C(=O)O)N(c3nc(C(F)F)nc4c3oc3ccccc34)C2)CCOC12COC2` [Ex. 4.04 of PCT/EP2022/062 480], for which the IC50 in [3] was 77 nM; in assay [4] it was 386 nM; in [5], more than 16600 nM.
Turning to `C#Cc1cnc(O[C@H]2C[C@@H](C(=O)OC)N(c3nc(C(F)(F)F)nc4c3oc3ccccc34)C2)c(N2CCOC3(COC3)[C@@H]2C)c1` [P03 of PCT/EP2022/062 480], the IC50 in assay [3] is 1090 nM; in [4], 188 nM; in assay [5], 22800 nM.
As for `Cc1nc(N2CCC[C@H]2C(=O)O)c2oc3ccccc3c2n1` [Example 15, reference compound], the IC50 in [1] (setting [10]) and in assay [2] (setting [11]) was more than 17000 nM in each case.
Regarding `C#Cc1cnc(O[C@H]2C[C@@H](C(=O)O)N(c3nc(C(F)(F)F)nc4c3oc3ccccc34)C2)c(N2CCOC3(COC3)[C@@H]2C)c1` [Ex. 1.12 of PCT/EP2022/062 480], the IC50 was 15 nM in assay [3], 7 nM in assay [4] and 11900 nM in [5].
On to `COC(=O)[C@@H]1C[C@H](Oc2ncccc2N2CCOC3(COC3)[C@@H]2C)CN1c1nc(C(F)F)nc2c1oc1ccccc12` [P01 of PCT/EP2022/062 480], for which the IC50 is 1310 nM in [3], 358 nM in assay [4], more than 9960 nM in [6] and 26100 nM in [5].
Turning to `C#Cc1cnc(O[C@H]2C[C@@H](C(=O)OC)N(c3nc(C(F)(F)F)nc4c3oc3ccccc34)C2)c([C@@]2(F)CCS(=O)(=O)C[C@@H]2C)c1` [P01 of PCT/EP2022/062 496], the IC50 in [3] is 67 nM; in assay [4], 11 nM; in assay [5], more than 16600 nM.
In the case of `Cc1nc(N2C[C@@H](Cc3nn[nH]n3)C[C@H]2C(=O)O)c2oc3ccccc3c2n1` [Example 25, reference compound], the IC50 in [7] was less than 100 nM; in assay [1] (setting [10]), more than 17000 nM; in assay [2] (setting [11]), more than 17000 nM; in [2] (THP-1, running text, read-out: THP1(vir) IC50) it was 17000 nM.
On to `COC(=O)[C@@H]1C[C@H](Oc2ncc(Br)cc2N2CCOC3(COC3)[C@@H]2C)CN1c1nc(C(F)(F)F)nc2c1oc1ccccc12` [P02 of PCT/EP2022/062 480], for which the IC50 in assay [3] was 5330 nM; in assay [4], 444 nM; in [6] it was more than 9950 nM; in assay [5], 17100 nM.
For `COC(=O)[C@@H]1C[C@H](Oc2ncc(-c3cccnc3OC)cc2N2CCOC3(COC3)[C@@H]2C)CN1c1nc(C(F)(F)F)nc2c1oc1ccccc12` [P04 of PCT/EP2022/062 480], the IC50 in [3] was 2750 nM; in assay [4], 67 nM; in assay [6], more than 9950 nM; in assay [5], more than 16600 nM.
For the compound `CC(C)(C(=O)N[C@H]1C[C@@H](C(=O)O)N(c2nc(C(F)(F)F)nc3c2oc2ccccc23)C1)c1cn[nH]c1` [Example 58, reference compound], the IC50 in assay [2] (setting [11]) came to 21000 nM.
In the case of `COC(=O)[C@@H]1C[C@H](Oc2ncc(Cl)cc2[C@@]2(F)CCS(=O)(=O)C[C@@H]2C)CN1c1nc(C(F)F)nc2c1oc1ccccc12` [P02 of PCT/ EP2022/062496], the IC50 in [3] was 140 nM; in assay [4], 29 nM; in assay [6] it was more than 9950 nM; in assay [5], more than 16600 nM.
On to `COC(=O)[C@@H]1C[C@H](Oc2ncc(Cl)cc2[C@@]2(OC)CC(C)(C)S(=O)(=O)C[C@@H]2C)CN1c1nc(C(F)F)nc2c1oc1ccccc12` [P03 of PCT/ EP2022/062496], for which the values for the IC50 in [3], in assay [4] and in assay [5] were 1990 nM, 202 nM and 20600 nM, respectively.
As to `COc1ncccc1-c1cnc(O[C@H]2C[C@@H](C(=O)O)N(c3nc(C(F)(F)F)nc4c3oc3ccccc34)C2)c(N2CCOC3(COC3)[C@@H]2C)c1` [Ex. 3.14 of PCT/EP2022/062 480], the values for the IC50 in assay [3], in assay [4] and in assay [5] were 26 nM, 10 nM and 7830 nM, respectively.
On to `C[C@H]1CS(=O)(=O)CC[C@]1(F)c1cc(Cl)cnc1O[C@H]1C[C@@H](C(=O)O)N(c2nc(C(F)F)nc3c2oc2ccccc23)C1` [Ex. 1.13 of PCT/ EP2022/062496], for which the IC50 is 6 nM in [3] and 22500 nM in [5].
For `CO[C@]1(c2cc(Cl)cnc2O[C@H]2C[C@@H](C(=O)O)N(c3nc(C(F)F)nc4c3oc3ccccc34)C2)CC(C)(C)S(=O)(=O)C[C@@H]1C` [Ex. 1.05 of PCT/ EP2022/062496], the figures for the IC50 in assay [3], in assay [4] and in assay [5] were 135 nM, 44 nM and 13200 nM, respectively.
On to `Cc1nc(N2C[C@@H](CC(=O)Nc3ccc(-c4ccccc4)cc3)C[C@H]2C(=O)O)c2oc3ccccc3c2n1` [Compound 5, reference compound], for which the IC50 in assay [1] (THP-1, Table 3, Compound No. 5 of WO 2022/174012) is more than 10000 nM; in assay [2] (THP-1, Table 3, Compound No. 5 of WO 2022/174012, read-out: THP1(vir) IC50) it was more than 10000 nM; in [8], less than 1000 nM; in [9], 50 to 100 nM.
`C#Cc1cnc(O[C@H]2C[C@@H](C(=O)O)N(c3nc(C(F)(F)F)nc4c3oc3ccccc34)C2)c([C@@]2(F)CCS(=O)(=O)C[C@@H]2C)c1` [Ex. 2.12 of PCT/ EP2022/062496]: the figures for the half-inhibitory concentration (IC50) in assay [3] and in [5] were 8 nM and 21800 nM, respectively.
As for `C[C@@H]1N(c2cc(Br)cnc2OC2C[C@@H](C(=O)O)N(c3nc(C(F)(F)F)nc4c3oc3ccccc34)C2)CCOC12COC2` (some centres unmarked) [Ex. 1.10 of PCT/EP2022/062 480], the IC50 is 33 nM in assay [3], 91 nM in assay [4], 5 nM in assay [6] and 16100 nM in [5].

What is called IC50 is the concentration at which inhibition is half-maximal.
